Tests used:
[1] = test system: endometrium in estrogen-primed immature rabbits; assay: McPhail test (agonistic, progestational activity); format: in vivo, rabbit; conditions: 0-4 scale; 5 days; MPA 0.05 mg/kg/day, Org 214007-0 0.5 mg/kg/day; n=2
Protocol: The McPhail (or anti-McPhail) test was used to evaluate potential progestational (or anti-progestational) activity of Org 214007-0 on the endometrium in estrogen-primed immature rabbits after once-daily administration. The female NZW rabbits were housed in pairs in a light- and temperature-controlled room, fed daily with 40 - 50 g standard pelleted food and with free access to tap-water. Before treatment with compounds rabbits were primed daily in the morning with a subcutaneous dose of 2 μg estradiol benzoate for 8 days. […] Transverse sections were prepared, stained with haematoxylin-eosin and evaluated microscopically. Endometrial development was scored on a 0-4 scale as follows: score 0: no development of glands; score 1: start of development of glands; score 2: clear-cut development of glands with ducts beginning to branch; score 3: about 2/3 of stroma bearing glandual tissue; score 4: more than 2/3 of stroma bearing glandular tissue. A score of 2 or higher in both rabbits was evaluated as a positive resonse.
For both the agonistic and antagonistic test immature female NZW rabbits (n=2 per treatment group) were primed with estrogen. […] One day after the last treatment the uterus was dissected and endometrial development was scored on a 0-4 scale. […]

[2] = test system: endometrium in estrogen-primed immature rabbits; assay: anti-McPhail test (antagonistic, anti-progestational activity); format: in vivo, rabbit; conditions: 0-4 scale; 7 days with progesterone; RU486 4 mg/kg/day, Org 214007-0 0.5 mg/kg/day oral; n=2
Protocol: For the anti-McPhail test, the estrogen-primed rabbits were subsequently treated for 7 days with inducer progesterone (0.25 mg/kg/day s.c.) in combination with an oral treatment of either placebo, reference RU486 (4 mg/kg/day) or Org 214007-0 (0.5 mg/kg/day). The uterus preparation and evaluation of the endometrium was performed as described above.
For the antagonistic test, after oestrogen priming, rabbits were treated for 7 days with progesterone and placebo, reference RU486 or Org 214007-0. One day after the last treatment the uterus was dissected and endometrial development was scored on a 0-4 scale. […] After treatment with Org 214007-0 no reduction of the endometrial transformation was observed (score 3.31), indicative for no anti-progestagenic activity

LPS-induced TNFα release = assay: LPS-induced TNFα acute inflammation mouse model; format: in vivo; conditions: RU486 50 mg/kg s.c. 30 minutes before oral compound dosing
Protocol: For both the LPS-induced TNFα as well as the anti-CD3 induced IL-2 model, female Balb/c mice of 8–12 week old were used. Mice were treated orally with 0.2 ml compound or vehicle (water/mannitol (5%) with 5% DMSO/5% chremophore for the LPS model or with 0.5% gelatine for the anti-CD3 model). One hour after oral treatment animals were challenged i.p. with 0.2 ml of either 20 μg/mouse LPS (Sigma, E. coli serotype 055:B5) or 5 µg/mouse hamster anti-CD3 monoclonal (BD Biosciences Pharmingen, art. nr. 553057, clone 145-2C11). Ninety minutes after LPS injection or 3 hours after anti-CD3 challenge, blood samples were collected and serum levels of TNFα or IL-2 were determined via specific ELISAs (BD Biosciences Pharmingen, San Diego, CA, USA). In the experiment that included treatment with RU486 to block GR, mice were dosed subcutaneously with 50 mg/kg RU486 30 minutes before the oral compound dosing. ED50 and % efficacy (maximal percentage inhibition of TNFα or IL-2 release) are determined using a 3 parameter sigmoidal curve calculation. Statistical analysis of the results was performed using an one-way ANOVA (log) test.

[3] = target: His-GR-LBD (F602S mutated); assay: AlphaScreen or HTRF; co-factor peptide recruitment assay (Eu/APC fluorescence); 10 nM His-GR-LBD (F602S) pre-incubated 3 h at 4°C with Org 214007-0 (0.032 nM to 10 μM), then 100 nM TIF2-3 peptide, 8 nM streptavidin-APC and 1.25 nM anti-His-Eu, 20 h at 4°C

CC(=O)O[C@]1(C(C)=O)CC[C@H]2[C@@H]3C[C@H](C)C4=CC(=O)CC[C@]4(C)[C@H]3CC[C@@]21C [MPA, medroxyprogesterone acetate, reference compound]
endometrial development score, agonistic test [1]: 2.5

CC#C[C@]1(O)CC[C@H]2[C@@H]3CCC4=CC(=O)CCC4=C3[C@@H](c3ccc(N(C)C)cc3)C[C@@]21C [RU486, mifepristone, reference compound]
endometrial development score, antagonistic test [2]: 0.5 | effect of RU486 on inhibition of TNFα by Org 214007-0 or prednisolone (LPS-induced TNFα release): fully antagonized

peptide representing Transcriptional Intermediary Factor 2 - LXXLL motif 3 (TIF2-3)
percentage maximal efficacy of peptide recruitment with Org 214007-0, relative to prednisolone (100%) [3]: 67%
